Reference: PMC10149367, “The ferroptosis inducing compounds RSL3 and ML162 are not direct inhibitors of GPX4 but of TXNRD1” (Redox Biology, 2023)
pIC50: −log10 of the molar value.

Experiments:
GPX4 [1] = test system: GPX4; set-up: method as in PMID 33812801; details: cited from earlier work
[2] = test system: malondialdehyde (MDA) and Ptgs2 mRNA levels; set-up: method as in PMID 32732975; details: hemochromatosis mouse model; reversed by Ferrostatin-1; cited from earlier work
GPX1 = target: T1, GPX1 (Homo sapiens, UniProt P07203); test: GPX1 activity assay, pure enzyme (NADPH consumption, cumene hydroperoxide); assay type: biochemical; details: for pIC50: recombinant GPX1, 30 min preincubation, read-out: IC50 GPX1 inhibition
T1 construct: made in house
T1 sequence (P07203 1-203): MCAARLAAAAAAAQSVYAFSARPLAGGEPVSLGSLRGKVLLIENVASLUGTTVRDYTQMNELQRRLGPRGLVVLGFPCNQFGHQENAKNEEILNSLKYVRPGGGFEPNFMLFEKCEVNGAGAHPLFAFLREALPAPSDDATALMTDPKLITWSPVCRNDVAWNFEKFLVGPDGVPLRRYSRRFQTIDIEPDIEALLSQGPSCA
Procedure: (§1) Recombinant human proteins—Recombinant human selenoprotein GPX and TXNRD isoenzymes as well as recombinant human GR were cloned, expressed, and purified as described previously [[26], [27], [28]].
(§2) Biochemical assays—GPX assays were run as previously described [[26], [27], [28]] in a clear medium-binding 96-well SpectraPlates (PerkinElmer). Briefly, 198 μL of 10 nM GPX1 or 200 nM GPX4 were incubated with 2 μL compounds or DMSO in TES buffer (50 mM Tris-HCl, 2 mM EDTA (pH 7.5), 150 mM NaCl) with BSA at room temperature for 30 min. Then, 40 μL of master mix (100 nM GR, 1 mM GSH, 0.5 mM NADPH in TES buffer) was added. To start the reaction, 10 μL of Cumene hydroperoxide ([0.5 mM] in 50% EtOH) was then added. Absorbance at 340 nm was measured using a Tecan Infinite® M Nano microplate reader every 20 s for 30 min. Four replicates were run, unless otherwise stated.

TXNRD1 [3] = target: T2, TXNRD1 (Homo sapiens, UniProt Q16881); test: TXNRD1 activity assay, pure enzyme (Fig. 1A); assay type: biochemical
T2 construct: made in house
T2 sequence (Q16881 1-499 isoform Q16881-5): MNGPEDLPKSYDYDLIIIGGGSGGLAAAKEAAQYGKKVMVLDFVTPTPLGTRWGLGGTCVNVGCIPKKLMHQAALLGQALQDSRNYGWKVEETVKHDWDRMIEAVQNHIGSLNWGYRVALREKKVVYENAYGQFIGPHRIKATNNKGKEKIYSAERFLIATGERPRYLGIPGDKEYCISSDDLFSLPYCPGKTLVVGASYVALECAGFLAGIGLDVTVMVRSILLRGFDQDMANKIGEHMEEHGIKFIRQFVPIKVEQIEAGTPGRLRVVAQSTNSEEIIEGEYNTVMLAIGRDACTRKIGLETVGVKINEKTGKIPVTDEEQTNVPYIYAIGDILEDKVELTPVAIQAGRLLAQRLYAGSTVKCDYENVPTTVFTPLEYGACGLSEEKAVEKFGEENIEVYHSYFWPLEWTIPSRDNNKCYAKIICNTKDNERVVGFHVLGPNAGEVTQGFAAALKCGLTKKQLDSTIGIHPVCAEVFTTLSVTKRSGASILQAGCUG
Procedure: as §1
(§3) TXNRD1 selenite and DTNB assays were run as previously described [[26], [27], [28]]. Dose-response curves and IC50s were generated using Excel and GraphPad Prism. Briefly, initial slopes of NADPH consumption were normalized to DMSO controls and IC50s were calculated using log(inhibitor) vs. response—Variable slope (four parameters).

TXNRD1 [4] = target: T2, TXNRD1; test: TXNRD1 orthogonal assays (selenite reduction, DTNB reduction; Extended Data Fig. 2); assay type: biochemical; details: selenite and DTNB assays
Procedure: as §3
Supplementary Data Extended Data Set
(Extended Data Fig. 2A, left panel). Measuring inhibition of TXNRD1 activity, as a complement to the analyses shown in the main text of this article, we also assessed this using two orthogonal approaches: 1. by the measurement of NADPH consumption coupled to direct selenite reduction of TXNRD1, either through the decrease in absorbance at 340 nm or decrease in its fluorescence, and 2. measuring TXNRD1-catalyzed DTNB reduction based upon quantification of TNB- anions absorbing at 412 nm as formed upon TXNRD1-catalyzed reduction of the disulfide in DTNB. Using these assays, we could confirm that the RSL3 inhibition of TXNRD1 was not an artifact due to specific assay conditions, with both RSL3 and ML162 showing complete inhibition of TXNRD1 at the higher end of the concentrations assessed here (2.8 ± 0.9% and 5.8 ± 0.9% remaining activity with just 5 µM of RSL3 and […]
ML162 (Extended Data Fig. 2A, middle and right panels, and 2B). […]
any inhibition of TXNRD1 in any of the assays. […]
µM, respectively (Extended Data Fig. 2B). Like with TRi-1 and TRi-2, inhibition of both TXNRD1 and TXNRD2 by RSL3 and ML162 was essentially dependent on pre-reduction of the enzyme by NADPH in order to yield potent and complete inactivation. Both compounds […]
ML162 in the absence of NADPH and subsequently assayed for activity; however, this could also be due to carry-over of the compounds to the NADPH dependent enzyme activity assay.
Because the reduction step with NADPH reduces a selenenylsulfide at the C-terminal active […]
of the selenolate at the C-terminal active site of the NADPH-reduced enzyme. That some […]
compounds might also bind some other additional site(s) in the enzyme. That notion is further strengthened by the fact that thermostability of TXNRD1 was also affected at higher concentrations of compounds when incubated with the enzyme in the absence of NADPH (see […]
dose-response curve fit to the average of n = 3 technical replicates. […]
well (middle left panel) and 1536-well format (not shown), as well as a DTNB assay (middle […]
TXNRD2 by RSL3 (left panel), ML162 (middle left panel), TRi-1 (middle right panel), and TRi-2 (right panel) are modulated by NADPH pre-treatment; Data are presented as mean ± s.d.; Four-parameter dose-response curve fit to the average of n = 3 technical replicates (n = 2

GPX4 [5] = target: T3, GPX4 (Homo sapiens, UniProt P36969); test: nano differential scanning fluorimetry, GPX4; assay type: binding; details: 100 μM compound; DMSO control 51.7 °C
T3 construct: made in house
T3 sequence (P36969 1-170 isoform P36969-2): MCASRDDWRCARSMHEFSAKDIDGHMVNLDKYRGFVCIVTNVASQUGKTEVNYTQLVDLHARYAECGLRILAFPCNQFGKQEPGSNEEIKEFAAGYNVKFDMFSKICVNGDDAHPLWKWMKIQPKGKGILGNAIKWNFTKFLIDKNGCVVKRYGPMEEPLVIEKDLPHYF
Procedure: Nano differential scanning fluorimetry—Real-time monitoring of fluorescence emission at 330 nm and 350 nm (excitation wavelength: 280 nm) and backscattering absorbance of GPX4 and TXNRD1 samples in the presence of compound was performed using a NanoTemper Prometheus NT.48 instrument. First, 0.25 mg/mL enzyme was incubated with 100 μM compound or DMSO for 15 min at room temperature. Standard capillaries were used, and temperature was increased from 25 to 95 °C with a ramp rate of 4.0 °C/min. Three biological replicates were carried out for each condition, and their means and standard deviations are depicted.

A549 cells = test: A549 viability in cellular TXNRD1 (RX1) experiments; details: A549, 4 h, Extended Data Fig. 3A
Procedure: Cellular TXNRD1 assay—20,000 or 10,000 A549 cells (for 4 h or 12 h and 24 h compound incubation respectively) were seeded in 96-well plates (microplates, 96 well, F-bottom, black, clear bottom, ViewPlateTM-96 F TC, PerkinElmer), in a total volume of 100 μL full DMEM (supplemented with 10% FBS and 100 nM Na2SeO3). The cells were incubated for 16 h at 37 °C and 5% CO2, followed by media change and addition of indicated compounds at respective concentrations (0.1 μM–20 μM), including 0.6% DMSO. The cells were subsequently incubated for the respective mentioned time, washed once with full DMEM and fresh, full DMEM, containing 75 μM RX1 and 0.75% DMSO, was added and the first fluorescent measurement was conducted immediately (timepoint = 0) using a Tecan Infinite M200 plate reader (ex/em 355/520). To follow the kinetic activation of RX1, a fluorescent measurement was done every hour for 6 h. Between measurements, cells were stored at 37 °C and 5% CO2. As a control, cells treated with compounds, but not with RX1, just the respective DMSO content, were used for background fluorescent. To determine how the cells were viable throughout the RX1 assay, the control cells were used for a viability measurement, using CellTiter-Glo® Luminescent Cell Viability Assay, after the final fluorescent measurement. For final data analysis, raw data was processed using Microsoft Excel and GraphPad Prism. In brief, the slope of the activated RX1 fluorescence increase was in each case calculated and normalized, using the viability measurement of the control cells.
Extended Data Figure 3: A549 cytotoxicity in cellular TXNRD1 experiments following final
A) Cell viability following 4-hour incubation with
compounds; B) Viability following 12-hour incubation with compounds; C) Viability
following 24 -hour incubation with compounds. The cell viability in was in each case measured
using the Cell Quanti-BlueTM Cell Viability Assay Kit and the data are presented as mean ±
s.d. of n = 3 biological replicates, each containing n = 3 technical replicates.

TXNRD1 [6] = target: T4, TXNRD1 (Homo sapiens, UniProt Q16881); test: Cellular TXNRD1 assay with RX1 probe in A549 cells; assay type: cell-based
T4 construct: RX1 probe that specifically reports upon TXNRD1 enzymatic activity in live cells; endogenous in cells; host or cells: A549
T4 sequence (Q16881 151-649 limits assumed): T2 sequence (Q16881 1-499 isoform Q16881-5)
Procedure: Cellular TXNRD1 assay—20,000 or 10,000 A549 cells (for 4 h or 12 h and 24 h compound incubation respectively) were seeded in 96-well plates (microplates, 96 well, F-bottom, black, clear bottom, ViewPlateTM-96 F TC, PerkinElmer), in a total volume of 100 μL full DMEM (supplemented with 10% FBS and 100 nM Na2SeO3). […] The cells were subsequently incubated for the respective mentioned time, washed once with full DMEM and fresh, full DMEM, containing 75 μM RX1 and 0.75% DMSO, was added and the first fluorescent measurement was conducted immediately (timepoint = 0) using a Tecan Infinite M200 plate reader (ex/em 355/520). To follow the kinetic activation of RX1, a fluorescent measurement was done every hour for 6 h. Between measurements, cells were stored at 37 °C and 5% CO2. As a control, cells treated with compounds, but not with RX1, just the respective DMSO content, were used for background fluorescent. To determine how the cells were viable throughout the RX1 assay, the control cells were used for a viability measurement, using CellTiter-Glo® Luminescent Cell Viability Assay, after the final fluorescent measurement. For final data analysis, raw data was processed using Microsoft Excel and GraphPad Prism. In brief, the slope of the activated RX1 fluorescence increase was in each case calculated and normalized, using the viability measurement of the control cells.

GPX4 [7] = target: T3, GPX4; test: GPX4 activity assay, pure enzyme (NADPH consumption, cumene hydroperoxide); assay type: biochemical; details: for pIC50: recombinant GPX4, 30 min preincubation, read-out: IC50 GPX4 inhibition
Procedure: as §1, §2

[8] = recombinant selenoprotein, pure enzyme system

For CC(=O)OC[C@H]1O[C@@H]([S-])[C@H](OC(C)=O)[C@@H](OC(C)=O)[C@@H]1OC(C)=O.CCP(CC)CC.[Au+] [Auranofin, auranofin], the “Effect on GPX4 expression levels” value (GPX4 [1]) is given as “decrease GPX4 expression levels”, the “Hepatic malondialdehyde (MDA) and Ptgs2 mRNA levels” value [2] is given as “increase in hepatic malondialdehyde (MDA)” and the pIC50 (GPX1) is given as 5.33. For the same compound, the pIC50 (TXNRD1 [3]; recombinant TXNRD1, Fig. 1A assay conditions, read-out: IC50 TXNRD1 inhibition) was ~4.72.

With Cc1onc(C(=O)N2CCN(C(c3ccc(Cl)cc3)c3ccc(Cl)cc3)CC2)c1[N+](=O)[O-] [ML210] the “Inhibition of TXNRD1 in any of the assays” value (TXNRD1 [4]) was “did not show any inhibition of TXNRD1”, the “Inhibition of GPX1” value (GPX1; [8]) was “neither RSL3, ML162, nor ML210 inhibited either GPX isoenzyme” and the “Tm of GPX4 (nanoDSF)” value (GPX4 [5]) was 52.1 °C. The “Effect on cell viability at 4 h” value (A549 cells) was “no overt effects on viability”, the “Effect on cellular TXNRD1 activity (RX1)” value (TXNRD1 [6]; A549, 20 μM) was “slightly suppressed TXNRD1 activity” and the “Effect on cellular TXNRD1 activity (RX1)” value (TXNRD1 [6]; A549, 0.5–1 μM) was “tendency to increase the TXNRD1 activity”. For the same compound, the “Effect on cellular TXNRD1 activity (RX1) at 4 h” value (TXNRD1 [6]; A549, 4 h incubation, RSL3 and ML162 at 1 μM or higher) was “increase in TXNRD1 activity” and the “Inhibition of GPX4” value (GPX4 [7]; [8]) was “neither RSL3, ML162, nor ML210 inhibited either GPX isoenzyme”.

For O=C(O)CC(S)C(=O)O (centres unmarked) [mercaptosuccinic acid], the pIC50 (GPX1) was > 5.00 and the pIC50 (GPX4 [7]) was > 5.00.

In the case of [Cl][Hg][Cl] [mercuric chloride], the pIC50 (GPX1) was > 5.00 and the pIC50 (GPX4 [7]) was > 5.00.

For OC[C@H]1O[C@H]([S-])[C@H](O)[C@@H](O)[C@@H]1O.[Au+] [aurothioglucose], the “Specificity among GPX1, GPX4, GR and TXNRD1” value (TXNRD1 [3]; pure enzyme systems, Fig. 1A lower panels) was “only showed TXNRD1 inhibition”.
